The supplement of paper PMC3493320

These compounds were tested on NCI-H295R (assay: IC50 (antiproliferative, ATP content)). Conditions: 48 h.
Method in brief: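 Serum-free ITS-supplemented DMEM was used to seed 1500 adrenocortical carcinoma cells per well in 1536-well plates, which were cultured overnight. Eight final concentrations of each library compound, from 0.6 nM to 46 µM, were added by pin transfer, followed by 48 h at 37 °C in 5% CO2 and a CellTiter-Glo ATP read after 20 min at room temperature. Luminescence was set against vehicle and positive-control wells, and the IC50 was obtained by logistic curve fitting. Any compound with no concentration response was entered as above the top dose.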

IC50 [µM] | SMILES
> 46 | NC(=O)c1cc[n+](CC2=C(C(=O)[O-])N3C(=O)[C@@H](NC(=O)[C@H](c4ccccc4)S(=O)(=O)[O-])[C@@H]3SC2)cc1.[Na+]
> 46 | O=C1c2ccccc2C(=O)c2c1ccc(O)c2O
> 46 | CC(C)(C)NCC(O)c1ccc(O)c(CO)c1 (stereo not drawn)
> 46 | O=C2N1[C@]([C@@]([H])2NC(C3=C(C)ON=C3C(C(Cl)=CC=C4)=C4F)=O)([H])SC(C)(C)[C@@H]1[C@@]([O-])=O.O.[Na+]
> 46 | CNCC(O)c1ccc(OC(=O)C(C)(C)C)c(OC(=O)C(C)(C)C)c1.Cl (stereo not drawn)
> 46 | c1ccc2c(c1)OCC(CN1CCCCC1)O2 (stereo not drawn)
> 46 | CN1[C@@H]2CC[C@H]1C[C@@H](OC(c1ccccc1)c1ccccc1)C2
> 46 | O=C(O[C@@H]5C4CCN(C5)CC4)N2[C@@H]([C@]3=CC=CC=C3)C1=CC=CC=C1CC2.Cl
> 46 | CC1(C)S[C@@H]2[C@H](NC(=O)[C@H](NC(=O)N3CCN(S(C)(=O)=O)C3=O)c3ccccc3)C(=O)N2[C@H]1C(=O)O
> 46 | O=C(O)c1cccnc1Nc1cccc(C(F)(F)F)c1
> 46 | C#CCN(C)CCCOc1ccc(Cl)cc1Cl.Cl
> 46 | O=C(O)c1ccc[n+]([O-])c1
> 46 | COc1ccc(O)cc1
> 46 | c1cccc2N\C=C/c12
> 46 | Cl.Cn1ccc2cc3c(cc21)CCN3C(=O)Nc1cccnc1
> 46 | CC(=C\c1ccccc1)/C=C1/SC(=S)N(CC(=O)O)C1=O
> 46 | CCN(CC)C(=O)c1cccnc1
> 46 | Cl.O=C(CCCN1CCC(O)(c2cccc(C(F)(F)F)c2)CC1)c1ccc(F)cc1
> 46 | Cc1ccc(S(=O)(=O)[N-]Cl)cc1.O.O.O.[Na+]
> 46 | Cc1ccc(S(=O)(=O)NC(=O)N[C@@H](C)Cc2ccccc2)cc1
> 46 | CN(C)CCCSc1ccccc1NC(=O)/C=C/c1ccccc1
> 46 | COc1ccc(/C=C/C(=O)O)cc1

IC50 [µM] | SMILES
> 46 | O=C1[C@H](CC[C@@H](C4=CC=C(F)C=C4)O)[C@@H]([C@]3=CC=C(O)C=C3)N1C2=CC=C(F)C=C2
> 46 | O=C(O)c1cc(=O)c2ccccc2o1
> 46 | [C@@H]1(O[C@H](CS1)N\2C(\N=C(/C=C/2)N)=O)CO
> 46 | O=C1N(C(C(O)=O)=C(CSC4=NN=NN4C)CS2)[C@@]2([H])[C@@]([H])1NC([C@@H]([C@@](C=C5)=CC=C5O)NC(C3=C(O)C=C(C)N=C3)=O)=O
> 46 | CC(CN1c2ccccc2Sc2ccccc21)N(C)C (stereo not drawn)
> 46 | CCN(CC)CCOC(=O)C(c1ccccc1)c1ccccc1.Cl
> 46 | O=S(=O)(O)c1ccc(O)cc1
> 46 | CN(C)CCCN1c2ccccc2Sc2ccccc21.Cl
> 46 | NCCS(=O)(=O)O
> 46 | CCOC(=O)Nc1ccc2c(c1)N(C(=O)CCN1CCOCC1)c1ccccc1S2.Cl
> 46 | O=C([C@H]3N[C@H]([C@](OCC)=O)CCC2=CC=CC=C2)N(CC(O)=O)C[C@H](SC3)[C@@]1=CC=CS1.Cl
> 46 | Cc1cccc(C)c1NC(=O)C1CCCCN1C.Cl (stereo not drawn)
> 46 | C[n+]1ccccc1C=NO.[Cl-]
> 46 | COc1c(N2CCNC(C)C2)c(F)cc2c(=O)c(C(=O)O)cn(C3CC3)c12 (stereo not drawn)
> 46 | CN(C)CCOC(=O)COc1ccc(Cl)cc1.Cl
> 46 | O.O=S(=O)([O-])CC(S)CS.[Na+] (stereo not drawn)
> 46 | COc1ccc(C2C(=O)c3ccccc3C2=O)cc1
> 46 | CC(=O)NC[C@H]1CN(c2ccc(N3CCOCC3)c(F)c2)C(=O)O1
> 46 | CCC(=O)O.CCC(=O)O.O=C(Nc1cccc(C2=NCCN2)c1)Nc1cccc(C2=NCCN2)c1
> 46 | Nc1ccc(S(=O)(=O)Nc2ccnn2-c2ccccc2)cc1
> 46 | O=C1C2=C(C=C(C=C2O)O)O/C(=C\1O)C3=CC(=C(C=C3)O)O.O.O
> 46 | O=C(O)c1ccc(OCCCOc2ccc(C(=O)O)cc2)cc1

More lines, now with the values behind:

SMILES | IC50 [µM]
S=C=S | > 46
CC(=O)N[C@@H]([C@@H](O)[C@H](O)[C@H](O)CO)[C@@H](O)CC(=O)C(=O)O | > 46
CC[N+](C)(CC)CCOC(=O)C(O)(c1ccccc1)c1ccccc1.[Br-] | > 46
Oc1ccc(Cl)cc1 | > 46
Br.CC(N)Cc1ccc(O)cc1 (stereo not drawn) | > 46
NCCC(O)(P(=O)(O)O)P(=O)(O)O | > 46
O=C(O)CCC(=O)O.c1ccc(C2(c3ccccc3)CC2C2=NCCN2)cc1 (stereo not drawn) | > 46
COc1ccc(CCN(C)CCCC(C#N)(c2cc(OC)c(OC)c(OC)c2)C(C)C)cc1OC.Cl (stereo not drawn) | > 46
CCCCC/C=C\C/C=C\C/C=C\CCCCC(=O)O | > 46
CC(=O)[C@H]1CC[C@H]2[C@@H]3C[C@H](C)C4=CC(=O)CC[C@]4(C)[C@H]3[C@@H](O)C[C@]12C | > 46
O=C(CS(=O)C(c1ccccc1)c1ccccc1)NO (stereo not drawn) | > 46
BrC=7Nc1cccc\6c1C=7C[C@@H]2C/6=C/[C@H](CN2C)C(=O)N[C@@]3(O[C@]5(O)N(C3=O)[C@@H](CC(C)C)C(=O)N4CCC[C@H]45)C(C)C | > 46
OC[C@H](CC)NC(=O)[C@@H]2/C=C1/c3cccc4N\C=C(\C[C@H]1N(C)C2)c34 | > 46
F[C@]1([C@](C[C@@H]4F)([H])[C@@]3([H])[C@]([C@@]([C@H](C)C3)(O)[C@@](CO)=O)(C)C[C@@H]1O)[C@](C=C2Cl)(C)C4=CC2=O.O | > 46
N=C(N)NCCN1CCCCCCC1.O=S(=O)(O)O.O=S(=O)(O)O | > 46
Cl.Nc1cc(Cl)c(NC2=NCCN2)c(Cl)c1 | > 46
O=C(O)CN(CCOCCOCCN(CC(=O)O)CC(=O)O)CC(=O)O | > 46
O[C@@H]1CO[C@H]2[C@@H]1OC[C@@H]2O | > 46
NC[C@H]1O[C@H](O[C@H]2[C@H](O[C@@H]3O[C@H](CO)[C@@H](O)[C@H]3O)C(O)[C@H](N)C[C@@H]2N)[C@H](N)[C@@H](O)[C@@H]1O.O=S(=O)(O)O (stereo partly drawn) | > 46
CN1C(=O)CCS(=O)(=O)C1c1ccc(Cl)cc1 (stereo not drawn) | > 46
Cc1ncc([N+](=O)[O-])n1CC(C)O (stereo not drawn) | > 46
COC(C)(C)CCCC(C)C/C=C/C(C)=C/C(=O)OC(C)C (stereo not drawn) | > 46
C=C1CC[C@@]2(O)[C@H]3Cc4ccc(O)c5c4[C@@]2(CCN3CC2CC2)[C@H]1O5 | > 46
CNC(=O)Oc1ccc2c(c1)[C@]1(C)CCN(C)[C@@H]1N2C | > 46
Cn1c(=O)c2c(ncn2CC2OCCO2)n(C)c1=O | > 46
CCN(CC)CCCC(C)Nc1ccnc2cc(Cl)ccc12.O=P(O)(O)O.O=P(O)(O)O (stereo not drawn) | > 46
CCCCc1nc(Cl)c(CO)n1Cc1ccc(-c2ccccc2-c2nnn[nH]2)cc1 | > 46

SMILES | IC50 [µM]
C[N+](C)(C)CCOC(N)=O.[Cl-] | > 46
C[N+]1(C)[C@@H]2CC[C@H]1C[C@@H](OC(=O)C(CO)c1ccccc1)C2.O=[N+]([O-])[O-] (stereo partly drawn) | > 46
O=CC=O | > 46
Cc1ccc(S(=O)(=O)N[C@H](CCCCN)C(=O)CCl)cc1.Cl | > 46
COc1c(O[C@@H]2O[C@H](CO)[C@@H](O)[C@H](O)[C@H]2O)cc2c(c1OC)-c1ccc(SC)c(=O)cc1[C@@H](NC(C)=O)CC2 | > 46
CCCCC/C=C\C/C=C\CCCCCCCC(=O)O | > 46
CCC1C(C)=NN=C(c2ccc(OC)c(OC)c2)c2cc(OC)c(OC)cc21 (stereo not drawn) | > 46
CCCN1CCC[C@@H]2Cc3nc(N)ncc3C[C@H]21 | > 46
N[C@H](C)[C@@H](O)[C@]1=CC=CC=C1.Cl | > 46
O=[C@@](OCCl)[C@](CC2)(OC(OCC)=O)[C@]1(C)[C@]2([H])[C@@](CCC3=CC4=O)([H])[C@]([C@](C)3C=C4)([H])[C@@H](O)C1 | > 46
NNCCc1ccccc1.O=S(=O)(O)O | > 46
N=C(Nc1ccccc1)Nc1ccccc1 | > 46
CO[C@H]1C=CO[C@@]2(C)Oc3c(C)c(O)c4c(c3C2=O)C2=NC3(CCN(CC(C)C)CC3)NC2=C(NC(=O)/C(C)=C\C=C\[C@H](C)[C@H](O)[C@@H](C)[C@@H](O)[C@@H](C)[C@H](OC(C)=O)[C@@H]1C)C4=O | > 46
C1CCN2C[C@@H]3C[C@@H](CN4CCCC[C@@H]34)[C@H]2C1 | > 46
COc1ccc(C(=O)c2c(C)n(CCN3CCOCC3)c3ccccc23)cc1 | > 46
C[C@H]1O[C@H](O[C@H]2[C@H](O)[C@@H](O)[C@@H](O[C@H]3[C@H](O)[C@@H](O)[C@H](O)O[C@@H]3CO)O[C@@H]2CO)[C@H](O)[C@@H](O)[C@@H]1N[C@H]1C=C(CO)[C@@H](O)[C@H](O)[C@H]1O | > 46
CCOC(=O)c1ccc(OC(=O)CCCCCNC(=N)[NH3+])cc1.CS(=O)(=O)[O-] | > 46
COc1cccc([C@@]2(O)CCCC[C@@H]2CN(C)C)c1 | > 46
CCOP(=S)(OCC)Oc1ccc2c(C)c(Cl)c(=O)oc2c1 | > 46
CC(=O)N[C@@H](CC(C)C)C(=O)O | > 46
CCN(CC)CCOC[C@H]1O[C@@H](O)[C@H](OCCN(CC)CC)[C@@H](O)[C@@H]1O | > 46
CC1(C)S[C@@H]2[C@H](/N=C/N3CCCCCC3)C(=O)N2[C@H]1C(=O)O | > 46
BrC2=CC=C(C=C2)[C@@H]([C@@]1=CC=CC=N1)CCN(C)C.O=C(O)/C=C\C(O)=O | > 46
C[C@]12C=CC(=O)C=C1CC[C@H]1[C@@H]3C[C@@H](O)[C@](O)(C(=O)CO)[C@@]3(C)C[C@H](O)[C@@]12F | > 46
Cc1c(C)c2c(c(C)c1OC(=O)c1cccnc1)CC[C@@](C)(CCC[C@H](C)CCC[C@H](C)CCCC(C)C)O2 | > 46
O=C(O)CCC(=O)C(=O)O | > 46
C=C(C)C1CC=C(C)CC1 (stereo not drawn) | > 46
